Assay results reported in PubChem BioAssay (NCI).
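Protocol summary: plate cells (96-well), add compound at 5 concentrations, incubate 48 h, interpolate endpoints linearly. GI50 = concentration required for 50% inhibition of growth. TGI: concentration producing complete growth inhibition.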

Columns and labels:
Experiment in all cases: growth of human tumour cells (NCI), 48 h
NCI-H226 lung = tested on: NCI-H226 lung
SF-295 CNS = tested on: SF-295 CNS
MCF7 breast = tested on: MCF7 breast
SK-MEL-5 melanoma = tested on: SK-MEL-5 melanoma
HOP-92 NSCLC = tested on: HOP-92 NSCLC
PC-3 prostate = tested on: PC-3 prostate
SNB-75 CNS = tested on: SNB-75 CNS
MALME-3M melanoma = tested on: MALME-3M melanoma
HS 578T breast = tested on: HS 578T breast
HL-60(TB) leukemia = tested on: HL-60(TB) leukemia
LOX IMVI melanoma = tested on: LOX IMVI melanoma
RXF 393 renal = tested on: RXF 393 renal
OVCAR-5 ovarian = tested on: OVCAR-5 ovarian
A498 renal = tested on: A498 renal
RPMI-8226 leukemia = tested on: RPMI-8226 leukemia
NCI-H522 lung = tested on: NCI-H522 lung
KM12 colon = tested on: KM12 colon
SNB-19 CNS = tested on: SNB-19 CNS
TK-10 renal = tested on: TK-10 renal
SW-620 colon = tested on: SW-620 colon
OVCAR-3 ovarian = tested on: OVCAR-3 ovarian
BT-549 breast = tested on: BT-549 breast
ACHN renal = tested on: ACHN renal
OVCAR-8 ovarian = tested on: OVCAR-8 ovarian
A549 NSCLC = tested on: A549 NSCLC
EKVX NSCLC = tested on: EKVX NSCLC
COLO 205 colon = tested on: COLO 205 colon
MOLT-4 leukemia = tested on: MOLT-4 leukemia
K-562 leukemia = tested on: K-562 leukemia
HCC-2998 colon = tested on: HCC-2998 colon

Compound Cc1ccc(-c2ccc(SCC(=O)Nc3ccc(S(N)(=O)=O)cc3Br)nn2)cc1 has a GI50 (NCI-H226 lung) of 7.32 µM, a TGI (NCI-H226 lung) of 24.7 µM and a GI50 (SF-295 CNS) of 10.5 µM. It also gave a TGI (SF-295 CNS) of 22.3 µM, a GI50 (MCF7 breast) of 15.4 µM and a TGI (MCF7 breast) of 37.1 µM. For the same compound, the GI50 (SK-MEL-5 melanoma) was 13.1 µM, the TGI (SK-MEL-5 melanoma) was 26.5 µM and the GI50 (HOP-92 NSCLC) was 2.97 µM. The TGI (HOP-92 NSCLC) was 13.5 µM, the GI50 (PC-3 prostate) was 5.64 µM and the TGI (PC-3 prostate) was 22.5 µM. The GI50 (SNB-75 CNS) was 13.6 µM, the TGI (SNB-75 CNS) was 37.1 µM and the GI50 (MALME-3M melanoma) was 13.7 µM. The TGI (MALME-3M melanoma) was 28.8 µM, the GI50 (HS 578T breast) was 13.1 µM and the TGI (HS 578T breast) was 45.3 µM. For the same compound, the GI50 (HL-60(TB) leukemia) was greater than 100 µM, the TGI (HL-60(TB) leukemia) was greater than 100 µM and the GI50 (LOX IMVI melanoma) was 10.4 µM. It also gave a TGI (LOX IMVI melanoma) of 25.5 µM, a GI50 (RXF 393 renal) of 3.96 µM and a TGI (RXF 393 renal) of 20.5 µM. For the same compound, the GI50 (OVCAR-5 ovarian) was 15 µM, the TGI (OVCAR-5 ovarian) was 32.4 µM and the GI50 (A498 renal) was 19.3 µM. For the same compound, the TGI (A498 renal) was 34.4 µM, the GI50 (RPMI-8226 leukemia) was greater than 100 µM and the TGI (RPMI-8226 leukemia) was greater than 100 µM. The GI50 (NCI-H522 lung) was 10.9 µM, the TGI (NCI-H522 lung) was 25.4 µM and the GI50 (KM12 colon) was 28.3 µM. For the same compound, the TGI (KM12 colon) was greater than 100 µM, the GI50 (SNB-19 CNS) was 11.3 µM and the TGI (SNB-19 CNS) was 23.3 µM. It also gave a GI50 (TK-10 renal) of 17.6 µM, a TGI (TK-10 renal) of 39.5 µM and a GI50 (SW-620 colon) of 27.2 µM. It also gave a TGI (SW-620 colon) greater than 100 µM, a GI50 (OVCAR-3 ovarian) of 16.9 µM and a TGI (OVCAR-3 ovarian) of 32.4 µM. It also gave a GI50 (BT-549 breast) of 15.7 µM, a TGI (BT-549 breast) of 44.2 µM and a GI50 (ACHN renal) of 12 µM. The TGI (ACHN renal) was 24.4 µM, the GI50 (OVCAR-8 ovarian) was 13.3 µM and the TGI (OVCAR-8 ovarian) was 29.6 µM. For the same compound, the GI50 (A549 NSCLC) was 15 µM, the TGI (A549 NSCLC) was 30.9 µM and the GI50 (EKVX NSCLC) was 15.5 µM. The TGI (EKVX NSCLC) was 31.3 µM, the GI50 (COLO 205 colon) was 17.4 µM and the TGI (COLO 205 colon) was 41.2 µM. The GI50 (MOLT-4 leukemia) was greater than 100 µM, the TGI (MOLT-4 leukemia) was greater than 100 µM and the GI50 (K-562 leukemia) was 36.3 µM. It also gave a TGI (K-562 leukemia) greater than 100 µM and a GI50 (HCC-2998 colon) of 11.5 µM.
